Common to all, as to assay type: in vivo
One experiment relates to Tetranychus urticae. The experiment can be described thus: Insecticidal/acaricidal test, Tetranychus urticae (spider mites - adult), contact. To be noted: 72 h, French bean leaf, 3 days, read-out: grading of mortality, TU. On the procedure:
(§1) The activity of the Product was determined using a variety of insect and acarine pests. The Product was used in the form of liquid preparations containing 500, 250 or 100 parts per million (ppm) by weight of the Product. The preparations were made by dissolving the Product in acetone and diluting the solutions with water containing 0.01% by weight of a wetting agent sold under the trade name "LISSAPOL" NX until the liquid preparations contained the required concentratio of the Product. "Lissapol" is a Registered Trade Mark.
(§2) The test procedure adopted with regard to each pest was basically the same and comprised supporting a number of the pests on a medium which was usually a host plant or a foodstuff on which the pests feed, and treating either or both the pests and the medium with the preparations. The mortality of the pests was then assessed at periods usually varying from one to three days after the treatment.
(§3) The results of the tests are given in Table IV for each of the Products, at the rate in parts per million given in the second column as a grading of mortality designated as A, B or C wherein A indicates 80-100% mortality or knockdown (70-100% in the case of Spodoptera exigua), B indicates 50-79% mortality or knockdown (50-69% in the case of Spodoptera exigua) and C indicates less than 50% mortality or knockdown.
(§4) In Table IV the pest organism used is designated by a letter code and the pest species, the support medium or food, and the type and duration of test is given in Table III.

The subject of another experiment is Myzus persicae. The experiment can be described thus: Insecticidal test, Myzus persicae (aphids), contact. The conditions noted are these: 72 h, Chinese Cabbage leaf, 3 days, read-out: grading of mortality, MP. On the procedure: as §1, §2, §3, §4
The subject of the next experiment is Nilaparvata lugens. The experiment can be described thus: Insecticidal test, Nilaparvata lugens (brown planthopper), contact. The conditions noted are these: 72 h, Cabbage leaf, 3 days, read-out: grading of mortality, NL. Here is the method:
as §1, §2, §3, §4

For experiment [1], the system named is Musca domestica. In words: Knockdown test, Musca domestica (houseflies - adults). The conditions noted are these: cotton wool/sugar, 4 hours, read-out: grading of knockdown, MD/KD. On the procedure:
as §1, §2
In the case of the species Musca domestica (housefly), additional tests to determine the knockdown effect of the compounds were performed.
as §3, §4

Experiment [2] has as its system Musca domestica. The experiment can be described thus: Insecticidal test, Musca domestica (houseflies - adults), contact. The conditions noted are these: 24 h, cotton wool/sugar, 1 day, read-out: grading of mortality, MD. On the procedure: as §1, §2, §3, §4
Another experiment has as its system Blattella germanica. In words: Insecticidal test, Blattella germanica (cockroach nymphs), residual. To be noted: 72 h, plastic pot, 3 days, read-out: grading of mortality, BG. On the procedure: as §1, §2, §3, §4
For a further experiment, the system named is Heliothis virescens. The experiment can be described thus: whole plant or invertebrate. The conditions noted are these: in Gossypium hirsutum, 72 h, read-out: grading of mortality, HV. On the procedure: as §1, §2, §3, §4
The test system of another experiment is Diabrotica balteata. The experiment can be described thus: Insecticidal test, Diabrotica balteata (rootworm larvae), residual. The conditions noted are these: 72 h, filter paper/maize seed, 3 days, read-out: grading of mortality, DB. Here is the method: as §1, §2, §3, §4

The values that follow come from US5225607A, “Insecticidal ethers” (Imperial Chemical Industries PLC, priority 1985, dated 1993).

As a reminder, the mortality is the percentage killed.

Molecules are shown by their SMILES.

As to `CCCc1ccc(C(COCc2ccc(F)c(Oc3ccccc3)c2)C(F)(F)F)cc1` (centres unmarked) [Compound 20, 1,1,1-Trifluoro-2-(4-n-propylphenyl)-3-(3-phenoxy-4-fluorobenzyloxy)propane], the mortality at 100 ppm in the experiment on Tetranychus urticae, in the experiment with Myzus persicae, in the experiment with Nilaparvata lugens, in the experiment with Musca domestica [2], with Blattella germanica and with Heliothis virescens was 80 to 100% each time. The mortality at 100 ppm with Diabrotica balteata is 80 to 100%. Besides, the pest or weed control at 100 ppm in the experiment with Musca domestica [1] lay within 80 to 100%.
For the compound `Fc1ccc(COC=C(c2ccc(Cl)cc2)C(F)(F)F)cc1Oc1ccccc1` [Compound 458, 1,1,1-trifluoro-2-(4-chlorophenyl)-3-(3-phenoxy-4-fluorobenzyloxy)prop-2-ene], the mortality at 500 ppm was below 50% in the experiment with Tetranychus urticae; below 50% in the experiment on Myzus persicae; 80 to 100% in the experiment with Nilaparvata lugens; 80 to 100% with Musca domestica [2]; 50 to 79% in the experiment with Blattella germanica; 80 to 100% in the experiment with Heliothis virescens. The mortality at 500 ppm in the experiment with Diabrotica balteata lay in the range of 80 to 100%. The pest or weed control at 500 ppm with Musca domestica [1] was 80 to 100%.
Consider `CCOc1ccc(C(Cl)(COCc2ccc(F)c(Oc3ccc(Cl)cc3)c2)C(F)(F)F)cc1` (centres unmarked) [Compound 44, 1,1,1-Trifluoro-2-chloro-2-(4-ethoxyphenyl)-3-(3-(4-chlorophenoxy)-4-fluorobenzyloxy)propane], for which the mortality at 500 ppm in the experiment with Tetranychus urticae was below 50%; with Myzus persicae, 80 to 100%; in the experiment with Nilaparvata lugens, 80 to 100%; in the experiment with Musca domestica [2] it was 80 to 100%; in the experiment on Blattella germanica, 80 to 100%; in the experiment with Heliothis virescens, 80 to 100%. In addition, the mortality at 500 ppm with Diabrotica balteata fell in the range of 50 to 79%. In addition, in the experiment on Musca domestica [1], the pest or weed control at 500 ppm lay in the range of 80 to 100%.
Take `CCOc1ccc(C(Cl)(COCc2cccc(Oc3ccc(Cl)cc3)c2)C(F)(F)F)cc1` (centres unmarked) [Compound 42, 1,1,1-Trifluoro-2-chloro-2-(4-ethoxyphenyl)-3-(3-(4-chlorophenoxy)benzyloxy)propane]: the mortality at 250 ppm with Tetranychus urticae was below 50%; in the experiment on Myzus persicae, 80 to 100%; in the experiment on Nilaparvata lugens it was 80 to 100%; in the experiment on Musca domestica [2], 80 to 100%; in the experiment with Blattella germanica, 80 to 100%; with Heliothis virescens it was 80 to 100%. The mortality at 250 ppm in the experiment on Diabrotica balteata was in the range of 50 to 79%. For the same compound, in the experiment with Musca domestica [1], the pest or weed control at 250 ppm lay in the range of 80 to 100%.
`OC(COCc1ccc(F)c(Oc2ccccc2)c1)(c1ccc2c(c1)CCC2)C(F)(F)F` (centres unmarked) [Compound 124, 1,1,1-Trifluoro-2-(5-indanyl)-3-(3-phenoxy-4-fluorobenzyloxy)propan-2-ol]: the mortality at 500 ppm with Tetranychus urticae is 80 to 100%; in the experiment with Myzus persicae it was below 50%; in the experiment on Nilaparvata lugens, below 50%; in the experiment on Musca domestica [2], below 50%; with Blattella germanica, below 50%; with Heliothis virescens it was below 50%. Besides, the mortality at 500 ppm with Diabrotica balteata is below 50%. Further, the pest or weed control at 500 ppm in the experiment on Musca domestica [1] was below 50%.
As for `Fc1ccc(COCC(Cl)(c2ccc3c(c2)CCC3)C(F)(F)F)cc1Oc1ccccc1` (centres unmarked) [Compound 52, 1,1,1,-Trifluoro-2-chloro-2-(5-indanyl)-3-(3-phenoxy-4-fluorobenzyloxy)propane], the mortality at 500 ppm in the experiment with Tetranychus urticae is below 50%; with Myzus persicae, below 50%; in the experiment with Nilaparvata lugens, below 50%; with Musca domestica [2] it was 50 to 79%; with Blattella germanica, 80 to 100%; in the experiment with Heliothis virescens, 50 to 79%. Also, the mortality at 500 ppm in the experiment on Diabrotica balteata was below 50%. In addition, the pest or weed control at 500 ppm with Musca domestica [1] lay in the range of 80 to 100%.
With `FC(F)(F)Oc1ccc(C(COCc2cccc(Oc3ccccc3)c2)C(F)(F)F)cc1` (centres unmarked) [Compound 27, 1,1,1-Trifluoro-2-(4-trifluoromethoxyphenyl)-3-(3-phenoxybenzyloxy)propane], the mortality at 100 ppm in the experiment on Tetranychus urticae, with Myzus persicae, in the experiment on Nilaparvata lugens, in the experiment on Musca domestica [2], in the experiment with Blattella germanica and in the experiment on Heliothis virescens was 80 to 100% each time. For the same compound, the mortality at 100 ppm in the experiment with Diabrotica balteata was 80 to 100%. In addition, the pest or weed control at 100 ppm with Musca domestica [1] is below 50%.
On to `Fc1ccc(COCC(Cl)(c2ccc(Cl)cc2)C(F)(F)F)cc1Oc1ccccc1` (centres unmarked) [Compound 50, 1,1,1-Trifluoro-2-chloro-2-(4-chlorophenyl)-3-(3-phenoxy-4-fluorobenzyloxy)propane], for which the mortality at 500 ppm is below 50% with Tetranychus urticae; 80 to 100% in the experiment with Myzus persicae; 80 to 100% with Nilaparvata lugens; 80 to 100% with Musca domestica [2]; below 50% with Blattella germanica; 80 to 100% with Heliothis virescens. Also, in the experiment on Diabrotica balteata, the mortality at 500 ppm fell in the range of 80 to 100%. Besides, in the experiment with Musca domestica [1], the pest or weed control at 500 ppm was in the range of 80 to 100%.
In the case of `CCOc1ccc(C(O)(COCc2cccc(Oc3ccccc3)c2)C(F)(F)F)cc1` (centres unmarked) [Compound 112, 1,1,1-trifluoro-2-(4-ethoxyphenyl)-3-(3-phenoxybenzyloxy)propan-2-ol], the mortality at 250 ppm in the experiment with Tetranychus urticae, in the experiment with Myzus persicae, in the experiment on Nilaparvata lugens, in the experiment on Musca domestica [2], with Blattella germanica and in the experiment on Heliothis virescens was below 50% each time. The mortality at 250 ppm with Diabrotica balteata was 80 to 100%. The pest or weed control at 250 ppm in the experiment on Musca domestica [1] lay in the range of 50 to 79%.
On to `FC(F)(F)Oc1ccc(C(Cl)(COCc2cccc(Oc3ccccc3)c2)C(F)(F)F)cc1` (centres unmarked) [Compound 59, 1,1,1-Trifluoro-2-chloro-2-(4-trifluoromethoxyphenyl)-3-(3-phenoxybenzyloxy)propane], for which the mortality at 100 ppm in the experiment on Tetranychus urticae was 80 to 100%; in the experiment on Myzus persicae it was below 50%; with Nilaparvata lugens it was 80 to 100%; in the experiment with Musca domestica [2] it was 80 to 100%; in the experiment on Blattella germanica, 80 to 100%; with Heliothis virescens, 80 to 100%. In addition, the mortality at 100 ppm in the experiment with Diabrotica balteata was 80 to 100%. For the same compound, the pest or weed control at 100 ppm in the experiment with Musca domestica [1] was in the range of 80 to 100%.
Take `FC(F)(F)Oc1ccc(C(=COCc2cccc(Oc3ccccc3)c2)C(F)(F)F)cc1` [Compound 463, 1,1,1-trifluoro-2-(4-trifluoromethoxyphenyl)-3-(3-phenoxybenzyloxy)prop-2-ene]: the mortality at 500 ppm was below 50% with Tetranychus urticae; 80 to 100% with Myzus persicae; below 50% in the experiment on Nilaparvata lugens; below 50% with Musca domestica [2]; 80 to 100% in the experiment with Blattella germanica; 80 to 100% with Heliothis virescens. In the experiment on Diabrotica balteata, the mortality at 500 ppm fell in the range of 80 to 100%. In addition, the pest or weed control at 500 ppm in the experiment with Musca domestica [1] is below 50%.
Take `CCOc1ccc(C(O)(COCc2cccc(-c3ccccc3)c2C)C(F)(F)F)cc1` (centres unmarked) [Compound 142, 1,1,1-Trifluoro-2-(4-ethoxyphenyl)-3-(2-methyl-3-phenylbenzyloxy)propan-2-ol]: the mortality at 500 ppm was 80 to 100% with Tetranychus urticae; below 50% in the experiment with Myzus persicae; below 50% in the experiment with Nilaparvata lugens; below 50% in the experiment with Musca domestica [2]; below 50% in the experiment with Blattella germanica; 80 to 100% with Heliothis virescens. The mortality at 500 ppm with Diabrotica balteata is below 50%. The pest or weed control at 500 ppm with Musca domestica [1] was below 50%.
In the case of `CCOc1ccc(C(Cl)(COCc2cccc(-c3ccccc3)c2C)C(F)(F)F)cc1` (centres unmarked) [Compound 46, 1,1,1-Trifluoro-2-chloro-2-(4-ethoxyphenyl)-3-(2-methyl-3-phenylbenzyloxy)propane], the mortality at 500 ppm in the experiment on Tetranychus urticae, in the experiment on Myzus persicae, in the experiment with Nilaparvata lugens, with Musca domestica [2], in the experiment with Blattella germanica and in the experiment on Heliothis virescens was below 50% in each case. Moreover, the mortality at 500 ppm in the experiment on Diabrotica balteata is below 50%. Moreover, in the experiment with Musca domestica [1], the pest or weed control at 500 ppm lay within 80 to 100%.
